According to patent publication US20080269276A1, “COMPOSITIONS USEFUL FOR TREATING IRRITABLE BOWEL SYNDROME” (Dynogen Pharmaceuticals, Inc., priority 2007, published 2008):
Entries after “also recorded” stand apart in the source; their conditions may differ.

Tests used:
[1] = test system: males and females with IBS-c; experiment: Phase 2a randomized, double-blind, placebo-controlled clinical trial: weekly symptom-based assessments (OSGA, abdominal discomfort/pain, constipation, satisfaction with bowel habit); format: in vivo, human
Method: The Clinical Trial reported herein was a Phase 2a, Randomized, Double-Blind, Placebo-Controlled Study. In the Study, 91 males and females with IBS-c were administered doses of DDP733 (0.2, 0.5, 0.8 and 1.4 mg) and placebo, three times a day for 28 days (4 weeks). Study Details: • Phase 2a, randomized, double-blinded, placebo controlled parallel group design • 91 males and females with IBS-c • 7 week study with 4 weeks of treatment • Five treatment groups: • DDP733: 0.2 mg, 0.5 mg, 0.8 mg or 1.4 mg three times a day (approximately 30 to 60 minutes before breakfast, lunch and dinner) • PLACEBO: Three times a day (approximately 30 to 60 minutes before breakfast, lunch and dinner). • Assess effect on relief of IBS-c using symptom-based assessment including the following weekly questions: Overall response (OSGA); Abdominal discomfort/pain; Constipation; and Satisfaction with bowel habit. • Assess effect on pharmacodynamic measure (gastrointestinal transit) at baseline and week 4 using radio-opaque markers. • Establish safety profile. Key Subject Inclusion Criteria: • 1. Male or female from 18 to 65 years of age, inclusive • 2. IBS-c for at least three months prior to randomization as defined by the subject's response to the criteria below adapted from the Rome II • Modular Questionnaire: • a. Subject experiences discomfort or pain in the abdomen during at least 3 weeks (at least one day in each week) in the last 3 months. • b. Subject experiences one or more of the following: • i. Discomfort or pain that gets better or stops after a bowel movement • ii. Change in the usual number of bowel movements (either more or fewer) when the discomfort or pain starts • iii. Softer or harder stools than usual when the discomfort or pain starts • c. Patient experiences two or more of the following at least one-fourth (¼) of the occasions or days in the last three months: • i. Fewer than three bowel movements per week (0-2) • ii. Hard or lumpy stools • iii. Straining during a bowel movement • d. Patient experiences none of the following more than one-fourth (¼) of the occasions or days in the last three months: • i. More than three bowel movements a day (4 or more) • ii. Loose, mushy or watery stools • iii. Having to rush to the toilet to have a bowel movement • 3. Completion of at least six days of daily diary assessments in the week of screening prior to Visit 3 with a documented average stool consistency score of ≦2.5. Stool consistency was rated as 1=very hard, 2=hard, 3=formed, 4=loose, 5=watery. Clinical Symptoms were assessed using the following weekly questions: [table] […] Subjects were defined as Overall SGA responders, prior to the study, if: • 1. Somewhat relieved or better at 100% of SGAs (Response 3 at all weekly time points), or considerably/completely relieved for at least 50% of SGAs (Response 1 or 2 for at least 2 of the 4 weekly timepoints) or considerably/completely relieved at Week 4 (Response 1 or 2 at Week AND • 2. No more than 5 days of laxative use excluding bulk-forming laxatives over the 4-week treatment period.

[2] = test system: males and females with IBS-c; experiment: Phase 2a clinical trial: safety measurements (vital signs, adverse events, clinical laboratory testing, ECGs); format: in vivo, human; conditions: 0.2, 0.5, 0.8 or 1.4 mg three times a day for 28 days
Method: The Clinical Trial reported herein was a Phase 2a, Randomized, Double-Blind, Placebo-Controlled Study. In the Study, 91 males and females with IBS-c were administered doses of DDP733 (0.2, 0.5, 0.8 and 1.4 mg) and placebo, three times a day for 28 days (4 weeks). Study Details: • Phase 2a, randomized, double-blinded, placebo controlled parallel group design • 91 males and females with IBS-c • 7 week study with 4 weeks of treatment • Five treatment groups: • DDP733: 0.2 mg, 0.5 mg, 0.8 mg or 1.4 mg three times a day (approximately 30 to 60 minutes before breakfast, lunch and dinner) • PLACEBO: Three times a day (approximately 30 to 60 minutes before breakfast, lunch and dinner). Safety measurements included monitoring of vital signs and adverse events, clinical laboratory testing and performance of electrocardiograms (ECGs).

[3] = overall responders within the 1.4 mg, 3 times a day treatment group

O=C(N[C@H]1CN2CCC1CC2)c1c[nH]c2ccsc2c1=O [DDP733, (R)—N-1-azabicyclo[2.2.2]oct-3-yl-4,7-dihydro-7-oxothieno[3,2-b]pyridine-6-carboxamide]
subjects reporting overall symptom relief (Overall SGA responders, OSGA) ([1]; 1.4 mg three times a day (4.2 mg/day), oral, 4-week treatment, IBS-c subjects, placebo about 15%): 54% | statistical significance on clinical endpoint overall symptom relief (OSGA) ([1]; 1.4 mg three times a day (4.2 mg/day), Pearson chi squared test): Statistical significance (using the Pearson chi squared test) was achieved | OSGA clinical response at one week post-treatment ([1]; 1.4 mg three times a day, one week post-treatment (FIG. 2)): lost (i.e., returned to the level of placebo); also recorded: loss of response (return to level of placebo response) | other weekly subject global assessments (abdominal discomfort/pain, constipation, satisfaction with bowel habit) ([1]; 4.2 mg/day dose, Questionnaires 2, 3 and 4): consistent pattern of improvement | diarrhea reported by responders during the treatment period ([1]; 4.2 mg/day group, responders): no responders reported any diarrhea | laxative use among responders showing overall symptom relief ([1]; 4.2 mg/day group, responders, treatment period): relief was achieved in all responders without the use of laxatives | constipation and satisfaction with bowel habit [1, 3]: also improved on treatment | weekly pain response (Variable 2, abdominal discomfort/pain) [1, 3]: a decrease in weekly pain response was observed | drug related adverse events (nausea, pruritis and rash) [2]: mainly mild-moderate, transient in nature and required no intervention | lab or ECG abnormalities [2]: no pattern of lab or ECG abnormalities
